In PubChem BioAssay (NCI):
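GI50 is the concentration that inhibits growth by half. Definition used: TGI = concentration required for complete inhibition of growth.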

Columns and labels:
Assay in all cases: NCI anticancer screen, dose series, 384-well format
[1] = test system: SK-MEL-28 melanoma
[2] = test system: HCT-116 colon
[3] = test system: MOLT-4 leukemia
[4] = test system: OVCAR-8 ovarian
[5] = test system: SK-MEL-2 melanoma
[6] = test system: CAKI-1 renal
[7] = test system: MALME-3M melanoma
[8] = test system: SW-620 colon
[9] = test system: SF-295 CNS
[10] = test system: OVCAR-5 ovarian
[11] = test system: SK-MEL-5 melanoma
[12] = test system: K-562 leukemia
[13] = test system: A549 NSCLC
[14] = test system: NCI-H322M lung
[15] = test system: UACC-257 melanoma
[16] = test system: UACC-62 melanoma
[17] = test system: COLO 205 colon
[18] = test system: SNB-19 CNS
[19] = test system: SN12C renal
[20] = test system: SK-OV-3 ovarian
[21] = test system: DU-145 prostate
[22] = test system: 786-0 renal
[23] = test system: NCI-H522 lung
[24] = test system: BT-549 breast
[25] = test system: MDA-MB-231 breast
[26] = test system: RPMI-8226 leukemia
[27] = test system: TK-10 renal
[28] = test system: NCI/ADR-RES ovarian

In the case of `C=C(F)C(=O)N1CCN(c2nc(OC[C@@H]3CCCN3C)nc3c2CCN(c2cccc4cccc(Cl)c24)C3)C[C@@H]1CC#N`, the GI50 [1] was 1.13 µM, the TGI [1] was 2.36 µM and the GI50 [2] was 0.326 µM. It also gave a TGI [2] of 1.35 µM, a GI50 [3] of 0.182 µM and a TGI [3] of 0.384 µM. The GI50 [4] was 0.405 µM, the TGI [4] was 1.36 µM and the GI50 [5] was 0.484 µM. The TGI [5] was 1.63 µM, the GI50 [6] was 0.499 µM and the TGI [6] was 1.69 µM. The GI50 [7] was 1.33 µM, the TGI [7] was 2.61 µM and the GI50 [8] was 1.12 µM. The TGI [8] was 2.35 µM, the GI50 [9] was 1.48 µM and the TGI [9] was 2.81 µM. The GI50 [10] was 0.386 µM, the TGI [10] was 1.19 µM and the GI50 [11] was 0.564 µM. The TGI [11] was 1.81 µM, the GI50 [12] was 0.253 µM and the TGI [12] was 1.32 µM. It also gave a GI50 [13] of 0.561 µM, a TGI [13] of 1.84 µM and a GI50 [14] of 1.27 µM. For the same compound, the TGI [14] was 2.59 µM, the GI50 [15] was 0.749 µM and the TGI [15] was 2.02 µM. The GI50 [16] was 0.692 µM, the TGI [16] was 1.91 µM and the GI50 [17] was 0.564 µM. It also gave a TGI [17] of 1.74 µM, a GI50 [18] of 0.745 µM and a TGI [18] of 1.96 µM. For the same compound, the GI50 [19] was 1.2 µM, the TGI [19] was 2.44 µM and the GI50 [20] was 1.07 µM. The TGI [20] was 2.28 µM, the GI50 [21] was 1.21 µM and the TGI [21] was 2.48 µM. The GI50 [22] was 0.509 µM, the TGI [22] was 1.78 µM and the GI50 [23] was 0.255 µM. It also gave a TGI [23] of 0.861 µM, a GI50 [24] of 1.21 µM and a TGI [24] of 2.45 µM. It also gave a GI50 [25] of 0.417 µM, a TGI [25] of 1.42 µM and a GI50 [26] of 0.165 µM. It also gave a TGI [26] of 0.491 µM, a GI50 [27] of 0.925 µM and a TGI [27] of 2.16 µM. It also gave a GI50 [28] of 0.411 µM and a TGI [28] of 1.44 µM.
